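A five-concentration, 48-hour dose response in 96-well plates underlies each endpoint, interpolated linearly between surrounding concentrations. The concentration for 50% growth inhibition is given as GI50.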 Calls of active or inactive are those of the source. Cut-off read from the data, not from the text of the source: active = GI50 up to about 1.1 µM and inactive = higher.
Assays:
Experiment in all cases: NCI tumour cell line growth inhibition, 48 h
[1] = system: 786-0
[2] = system: ACHN
[3] = system: K562
[4] = system: KM12
[5] = system: M14
[6] = system: MOLT-4
[7] = system: NCI-H460
[8] = system: RXF 393
[9] = system: SF-268
[10] = system: SK-MEL-2
[11] = system: SK-MEL-5
[12] = system: SW-620
[13] = system: TK-10
[14] = system: U-251
[15] = system: UACC-62
[16] = system: A498

| Compound | GI50 [1] | GI50 [2] | GI50 [3] | GI50 [4] | GI50 [5] | GI50 [6] | GI50 [7] | GI50 [8] | GI50 [9] | GI50 [10] | GI50 [11] | GI50 [12] | GI50 [13] | GI50 [14] | GI50 [15] | GI50 [16] |
| --- | --- | --- | --- | --- | --- | --- | --- | --- | --- | --- | --- | --- | --- | --- | --- | --- |
| CN(C)c1ccc(/C=C2\CCc3ccccc3C2=O)cc1Br | > 100 µM (inactive) | > 100 µM (inactive) | 33.7 µM (inactive) | 38.5 µM (inactive) | 53.6 µM (inactive) | 32.6 µM (inactive) | > 100 µM (inactive) | 75.5 µM (inactive) | 65 µM (inactive) | 48.5 µM (inactive) | 25.8 µM (inactive) | 34.2 µM (inactive) | > 100 µM (inactive) | 71.8 µM (inactive) | 40.2 µM (inactive) | – |
| Cc1c2n(c(=O)[nH]c1=O)C1OC(CO)C(O2)C1N=[N+]=[N-] (configuration not stated) | > 100 µM (inactive) | > 100 µM (inactive) | > 100 µM (inactive) | > 100 µM (inactive) | – | > 100 µM (inactive) | > 100 µM (inactive) | – | > 100 µM (inactive) | > 100 µM (inactive) | > 100 µM (inactive) | > 100 µM (inactive) | > 100 µM (inactive) | > 100 µM (inactive) | > 100 µM (inactive) | 78 µM (inactive) |
| COc1ccc(C(=O)O)c2c(=O)c3ccccc3[nH]c12 | > 100 µM (inactive) | > 100 µM (inactive) | > 100 µM (inactive) | > 100 µM (inactive) | > 31.6 µM (inactive) | > 100 µM (inactive) | > 100 µM (inactive) | > 100 µM (inactive) | > 100 µM (inactive) | > 100 µM (inactive) | – | > 100 µM (inactive) | > 100 µM (inactive) | > 100 µM (inactive) | > 100 µM (inactive) | > 100 µM (inactive) |
| Cc1cnc2c(C)ccc([N+](=O)[O-])c2c1NCCCN(C)C | > 100 µM (inactive) | > 100 µM (inactive) | > 100 µM (inactive) | > 100 µM (inactive) | > 100 µM (inactive) | > 100 µM (inactive) | > 100 µM (inactive) | – | > 100 µM (inactive) | > 100 µM (inactive) | – | > 100 µM (inactive) | > 100 µM (inactive) | > 100 µM (inactive) | – | – |
| O=C1c2c(O)cccc2C(C(=O)CCCCCC(=O)C2c3cccc(O)c3C(=O)c3c(O)cccc32)c2cccc(O)c21 | 10.6 µM (inactive) | 2.72 µM (inactive) | 0.966 µM (active) | 1.07 µM (active) | 2.45 µM (inactive) | 9.53 µM (inactive) | 0.586 µM (active) | – | 1.04 µM (active) | 1.03 µM (active) | 0.555 µM (active) | 1.09 µM (active) | 3.82 µM (inactive) | 0.766 µM (active) | 1.12 µM (active) | 4.04 µM (inactive) |
| COC(=O)C(=O)C(C(=O)C=C(C)C)C(=O)C(=O)Nc1cc(C(F)(F)F)ccc1Cl (configuration not stated) | > 100 µM (inactive) | > 100 µM (inactive) | 42.9 µM (inactive) | > 100 µM (inactive) | > 100 µM (inactive) | > 100 µM (inactive) | > 100 µM (inactive) | > 100 µM (inactive) | > 100 µM (inactive) | > 100 µM (inactive) | > 100 µM (inactive) | – | > 100 µM (inactive) | > 100 µM (inactive) | > 100 µM (inactive) | > 100 µM (inactive) |
| CCCCCCCCOCC(COC(=O)CCCCCCC)OC(=O)CCCCCCC (configuration not stated) | > 100 µM (inactive) | > 100 µM (inactive) | > 100 µM (inactive) | – | > 100 µM (inactive) | > 100 µM (inactive) | > 100 µM (inactive) | – | > 100 µM (inactive) | – | > 100 µM (inactive) | > 100 µM (inactive) | > 100 µM (inactive) | > 100 µM (inactive) | > 100 µM (inactive) | > 100 µM (inactive) |
| O=[N+]([O-])c1ccc(Sc2c3ccccc3nc3ccccc23)cc1 | > 100 µM (inactive) | > 100 µM (inactive) | > 100 µM (inactive) | > 100 µM (inactive) | > 100 µM (inactive) | > 100 µM (inactive) | > 100 µM (inactive) | > 100 µM (inactive) | > 100 µM (inactive) | > 100 µM (inactive) | > 100 µM (inactive) | > 100 µM (inactive) | – | > 100 µM (inactive) | > 100 µM (inactive) | – |
| C=CC1C(OC2OC(CO)C(O)C(O)C2O)OC=C(C(=O)OC)C1CC=O (configuration not stated) | > 100 µM (inactive) | > 100 µM (inactive) | > 100 µM (inactive) | > 100 µM (inactive) | > 100 µM (inactive) | > 100 µM (inactive) | – | > 100 µM (inactive) | > 100 µM (inactive) | > 100 µM (inactive) | > 100 µM (inactive) | 81.8 µM (inactive) | – | > 100 µM (inactive) | > 100 µM (inactive) | > 100 µM (inactive) |
